We go through six molecules from patent US20020035058A1, “Isopentenyl pyrophosphate isomerase (IPI) and/or prenyl transferase inhibitors” (The University of Sheffield, priority 1996, published 2002).

Where two headings read alike, the source gives them in different places.

The target of one experiment is IPI (IPP isomerase) (Homo sapiens, UniProt Q13907). Kind of experiment: Inhibition of IPI (IPP isomerase) by bisphosphonates. In kind it is biochemical. The conditions noted are these: concentration required to inhibit enzyme activity by 50%.
Experiment [1] relates to protein prenylation in J774 cells. The experiment can be described thus: Protein prenylation: incorporation of mevalonate into proteins. It is filed as cell-based. Conditions: for incorporation of radiolabel (mevalonate) into protein bands: 100 μM, 24 h labelling period.
Another experiment concerns the target T1, squalene synthase (Rattus norvegicus, UniProt Q02769).
T1 sequence (Q02769 1-416): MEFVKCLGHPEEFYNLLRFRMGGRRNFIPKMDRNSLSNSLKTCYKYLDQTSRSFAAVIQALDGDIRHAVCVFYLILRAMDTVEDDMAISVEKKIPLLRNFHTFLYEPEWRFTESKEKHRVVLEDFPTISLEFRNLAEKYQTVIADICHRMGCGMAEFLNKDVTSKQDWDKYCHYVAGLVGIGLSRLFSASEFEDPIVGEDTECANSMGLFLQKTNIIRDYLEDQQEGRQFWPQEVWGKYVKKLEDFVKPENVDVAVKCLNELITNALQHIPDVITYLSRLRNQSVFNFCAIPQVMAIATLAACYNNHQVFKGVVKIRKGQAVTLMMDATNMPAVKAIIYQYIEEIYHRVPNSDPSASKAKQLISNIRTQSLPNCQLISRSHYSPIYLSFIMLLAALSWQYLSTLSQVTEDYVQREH
Conditions: cited from earlier work.

Experiment [2] relates to J774 macrophages. The experiment can be described thus: Loss of total cell viability, MTT reduction. In kind it is cell-based. Conditions: for IC50: read-out: concentration causing 50% loss of total cell viability. On the technique in general: Tetrazolium dyes change colour on reduction, which living cells bring about.
The test system of the next experiment is Rab6. Kind of experiment: Immunoprecipitation of Rab6: geranylgeranylation of Rab6. The conditions noted are these: 41 h. In kind it is cell-based.
The next experiment relates to Ras. Kind of experiment: Immunoprecipitation of Ras: farnesylation of Ras. In kind it is cell-based. Conditions: 41 h.
Experiment [3] deals with J774 macrophages. The experiment can be described thus: Assessment of apoptosis in J774 macrophages (nuclear morphology, DNA fragmentation). In kind it is cell-based. The conditions noted are these: 10-100 μM.

Chain of IPI (IPP isomerase) (Q13907 whole entry): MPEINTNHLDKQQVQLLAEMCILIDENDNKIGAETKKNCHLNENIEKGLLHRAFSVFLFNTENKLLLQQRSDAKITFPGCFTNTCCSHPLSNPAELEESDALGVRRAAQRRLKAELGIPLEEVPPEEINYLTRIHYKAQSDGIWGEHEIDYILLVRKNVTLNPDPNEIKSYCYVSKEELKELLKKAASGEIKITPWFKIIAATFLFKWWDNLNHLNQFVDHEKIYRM

As for `CCCCCN(C)CCC(O)(P(=O)(O)O)P(=O)(O)O` [IBANDRONATE, ibandronate], the IC50 at IPI (IPP isomerase) came to 35 nM. In addition, the “incorporation of radiolabel (mevalonate) into protein bands” value (shortened to “incorporation of radiolabel”) in experiment [1] is “markedly reduced”. For the same molecule, the “inhibition of squalene synthase” value at squalene synthase is given as “potent inhibitors”.

Turning to `CC[C@H](C)C(=O)O[C@H]1CCC=C2C=C[C@H](C)[C@H](CC[C@@H]3C[C@@H](O)CC(=O)O3)[C@H]21` [mevastatin], the “loss of cell viability with cycloheximide co-incubation” value in the experiment with J774 macrophages [2] (15 μM mevastatin + 0.5 μM cycloheximide, 48 h) is recorded as “could be prevented”. Also, in the experiment with J774 macrophages [2] (J774 cells, after 48 h), the IC50 was about 10000 nM. Also, the “loss of cell viability and apoptosis with FPP, GGPP or mevalonic acid lactone co-incubation” value with J774 macrophages [2] (mevastatin + 200 μM FPP, GGPP or mevalonic acid lactone) is given as “prevented (at least partially)”. The “geranylgeranylated form of Rab6 after immunoprecipitation” value in the experiment with Rab6 (11 μM) is reported as “barely detectable”. Further, the “farnesylated form of Ras after immunoprecipitation” value with Ras (15 μM) is reported as “Identical results”. For the same molecule, the “proportion of J774 cells with features typical of apoptosis” value in the experiment on J774 macrophages [3] is reported as “dose-dependent increase”.

Regarding `O=P(O)(O)C(O)(Cc1cccnc1)P(=O)(O)O` [RISEDRONATE, risedronate], the IC50 at IPI (IPP isomerase) was 22 nM; in the experiment with J774 macrophages [2] (Mus musculus, J774, 48 h), about 3000 nM.

The molecule `O=P(O)(O)C(NC1CCCCCC1)P(=O)(O)O` [YM175] registered an IC50 against IPI (IPP isomerase) of 35 nM. Besides, the “incorporation of radiolabel” value in experiment [1] is recorded as “inhibited even more effectively”. Also, the “inhibition of squalene synthase” value at squalene synthase is “potent inhibitors”.

`O=P(O)(O)C(Cl)(Cl)P(=O)(O)O` [clodronate]: in the experiment on J774 macrophages [2] (750 μM), the “reduction in viability of J774 cells” value is “substantial reduction”. In addition, the “protein prenylation and synthesis of radiolabelled dye-front compounds” value in experiment [1] (750 μM) is “did not affect”.

Consider `NCCCC(O)(P(=O)(O)O)P(=O)(O)O` [ALENDRONATE, alendronate], for which the IC50 is 75 nM against IPI (IPP isomerase) and about 30000 nM with J774 macrophages [2] (Mus musculus, J774 cells, after 48 h). Besides, in the experiment with J774 macrophages [2] (100 μM alendronate + 200 μM FPP or GGPP), the “apoptosis and loss of cell viability with FPP or GGPP co-incubation” value is “could be partially inhibited”. In addition, the “geranylgeranylated form of Rab6 after immunoprecipitation” value in the experiment with Rab6 (10 μM) was “barely detectable”. Further, the “incorporation of radiolabel” value in experiment [1] was “markedly reduced”. In addition, the “inhibition of squalene synthase” value at squalene synthase is reported as “not”. The “farnesylated form of Ras after immunoprecipitation” value in the experiment on Ras (100 μM) is “barely detectable”.
